Data reported in patent US8088805B2, “Inhibitors of histone deacetylase” (MethylGene Inc., priority 2004, dated 2012).

Legend:
[1] = tested on: HCT116 human colorectal carcinoma cells; assay: Human tumor xenograft in vivo, HCT116; conditions: Mus musculus, HCT-116; 30 mg/kg ip, mice; read-out: % Inhibition (relative to vehicle control) HCT116
Method: (§1) Eight to ten week old female BCD1 mice (Taconic Labs, Great Barrington, N.Y.) were injected subcutaneously in the flank area with 2×10^6 preconditioned HCT116 human colorectal carcinoma cells, SW48 colon cancer cells, and A549 lung cancer cells. Preconditioning of these cells was done by a minimum of three consecutive tumor transplantations in the same strain of nude mice. Subsequently, tumor fragments of approximately 30 mgs were excised and implanted subcutaneously in mice, in the left flank area, under Forene anesthesia (Abbott Labs, Geneva, Switzerland). When the tumors reached a mean volume of 100 mm^3, the mice were treated intraperitoneally by daily injection, with a solution of the histone deacetylase inhibitor in DMSO, at a starting dose of 10 mg/kg. The optimal dose of the HDAC inhibitor was established by dose response experiments according to standard protocols. Tumor volume was calculated every second day post infusion according to standard methods (e.g., Meyer et al., Int. J. Cancer 43: 851-856 (1989)).

SW48 colon cancer cells = assay: Human tumor xenograft in vivo, SW48; conditions: Mus musculus, 30 mg/kg ip, mice, read-out: % Inhibition (relative to vehicle control) SW48
Method: as §1

Q: Which inhibition in vivo at 30 mg/kg [1] does the source give for `COc1ccc(CCNc2ccnc(NCc3ccc(C(=O)Nc4ccccc4N)cc3)n2)cc1OC` [10a, N-(2-Amino-phenyl)-4-({4-[2-(3,4-dimethoxy-phenyl)-ethylamino]-pyrimidin-2-ylamino}-methyl)-benzamide] here?
A: 16.1%

Q: And the inhibition in vivo at 30 mg/kg (SW48 colon cancer cells)?
A: 23%

Q: With `Nc1ccccc1NC(=O)c1ccc(CNc2nccc(-c3ccncc3)n2)cc1` [31b, N-(2-Amino-phenyl)-4-[(4-pyridin-4-yl-pyrimidin-2-ylamino)-methyl]-benzamide] as the molecule, how does the inhibition in vivo at 30 mg/kg [1] read?
A: 39.4%

Q: What about the inhibition in vivo at 30 mg/kg (SW48 colon cancer cells) of the same molecule?
A: 47.8%

Q: With `Nc1ccccc1NC(=O)c1ccc(CSc2nc3cc(F)c(F)cc3[nH]2)cc1` [compound 194, N-(2-Amino-phenyl)-4-(5,6-difluoro-1H-benzoimidazol-2-ylsulfanylmethyl)-benzamide] as the molecule, how does the inhibition in vivo at 30 mg/kg [1] read?
A: 54.5%

Q: And the inhibition in vivo at 30 mg/kg (SW48 colon cancer cells)?
A: 23.1%

Q: What does the source list for `COCOC(C)(C)c1ccc(-c2ccnc(NCc3ccc(C(=O)Nc4ccccc4N)cc3)n2)cn1` [58b, N-(2-Amino-phenyl)-4-({4-[6-(1-methoxymethoxy-1-methyl-ethyl)-pyridin-3-yl]-pyrimidin-2-ylamino}-methyl)-benzamide]?
A: inhibition in vivo at 30 mg/kg [1]: 29.4%; inhibition in vivo at 30 mg/kg (SW48 colon cancer cells): 34.6%

Q: What does the source list for `CCC(=O)Nc1sc(Cc2ccc(C(=O)Nc3ccccc3N)cc2)cc1C(N)=O` [compound 296, 5-[4-(2-Amino-phenylcarbamoyl)-benzyl]-2-propionylamino thiophene-3-carboxylic acid amide]?
A: inhibition in vivo at 30 mg/kg [1]: 63.9%; inhibition in vivo at 30 mg/kg (SW48 colon cancer cells): 53.4%

Q: Which results are given for `Nc1ccccc1NC(=O)c1ccc(CNc2nccc(-c3nccs3)n2)cc1` [26c, N-(2-Amino-phenyl)-4-[(4-thiazol-2-yl-pyrimidin-2-ylamino)-methyl]-benzamide]?
A: inhibition in vivo at 30 mg/kg [1]: 88%; inhibition in vivo at 30 mg/kg (SW48 colon cancer cells): 89.5%

Q: With `CC(=O)Nc1ccc(NCc2ccc(C(=O)Nc3ccccc3N)cc2)cn1` [212f, 4-[(6-Acetylamino-pyridin-3-ylamino)-methyl]-N-(2-amino-phenyl)-benzamide] as the molecule, how does the inhibition in vivo at 30 mg/kg [1] read?
A: 65.7%

Q: And the inhibition in vivo at 30 mg/kg (SW48 colon cancer cells)?
A: 32.7%
